Assay [1] has as its target T1, human CCR4 (Homo sapiens, UniProt P51679).
T1 construct: expressed in transfected cells; host or cells: CHO-dhfr(-)
T1 sequence (P51679 1-360): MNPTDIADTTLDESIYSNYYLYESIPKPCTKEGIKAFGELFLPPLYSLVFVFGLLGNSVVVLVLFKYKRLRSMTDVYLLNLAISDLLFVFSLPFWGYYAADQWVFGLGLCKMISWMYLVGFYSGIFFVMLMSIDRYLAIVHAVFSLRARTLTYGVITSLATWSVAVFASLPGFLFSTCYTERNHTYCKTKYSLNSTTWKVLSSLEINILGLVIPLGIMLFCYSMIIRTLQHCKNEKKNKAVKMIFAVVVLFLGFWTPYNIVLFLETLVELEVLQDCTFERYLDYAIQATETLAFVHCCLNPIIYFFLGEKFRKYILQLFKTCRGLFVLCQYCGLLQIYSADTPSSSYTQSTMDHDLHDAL
Description: Inhibition of MDC-induced transient Ca ion increase in CCR4/CHO cells. It is filed as cell-based. The following applies: human CCR4 stably overexpressing CHO cell; recombinant human MDC 10 nM; read-out: IC50 value, inhibition of Ca2+ transient increase by MDC. The method, then:
1-1: Isolation of Human CCR4 Gene
Human bone marrow cell cDNA was prepared using Marathon cDNA amplification kit (manufactured by Clontech). PCR primers hCCR4XbaI-F1 (SEQ ID NO:1) and hCCR4XbaI-R1 (SEQ ID NO:2) were designed based on the sequence of GenBankX85740.
Using the human bone marrow cell cDNA as the template and using Ex Taq (manufactured by Takara), a PCR reaction (2 minutes at 95° C.→[30 seconds at 95° C., 45 seconds at 60° C., 1 minute at 72° C.]×35 times) was carried out. The thus amplified PCR product was subjected to 1% agarose gel electrophoresis, purified using QIAquick Gel Extraction Kit (manufactured by QUIAGEN) and then digested with a restriction enzyme Xbal. […]
The thus established human CCR4 stably overexpressing CHO cell (CCR4/CHO cell) was suspended in Ham's F-12 medium and FBS (10%) and dispensed into a 96-well plate at 3.0×10^4 cells/well. […] Transient increase in the intracellular Ca^2+ concentration induced by the human MDC was measured using a Ca^2+ detector for 96-well (manufactured by Hamamatsu Photonics), and inhibition ratio (%) of the test compound was calculated by the following equation: Inhibition ratio=[(Ec−Ea)/Ec]×100 • Ec: measured value of Ca^2+ transient increase by MDC; and • Ea: measured value of Ca^2+ transient increase by MDC when a test compound was added […]

Assay [2] deals with TNFα. The assay can be described thus: Mouse TNFα production model by LPS stimulation. It is filed as in vivo. The following applies: mouse C57BL/6, oral, dose of 100 mg/kg, LPS 60 mg/kg i.p. The method, then:
5-1: Mouse TNFα Production Model by LPS Stimulation
The present compound suspended in a medium, was orally applied to a mouse (male, C57BL/6), and after 0.5 hour, lipipolysaccharide (LPS, 055:B5, Sigma) was peritoneally administered to the mouse at a dose of 60 mg/kg. To the control groups was orally applied only the medium. Sixty minutes after LPS treatment, heparin-added blood collection was conducted from the abdominal vena cava under ether anesthesia, and centrifuged (12,000 r.p.m.) at 4° C. for 3 minutes, to give the plasma. The thus obtained plasma sample was stored at −80° C. before use. TNFα in the plasma was quantified using an ELISA kit (R&D systems).

In assay [3] the test system is leukocyte infiltration into the lung. The assay can be described thus: Mouse OVA-induced asthma model. Particulars: mouse C57BL/6, oral, dose of 30 mg/kg. The format is in vivo. The procedure:
3-1: Mouse OVA-Induced Asthma Model Ovalbumin (OVA, 0.2 mg/mL) and Alum (8 mg/mL) prepared in physiological saline were intraperitoneally administered (500 μL) to the mouse (male, C57BL/6) on Day 1 (test starting day) and Day 8 (1 week thereafter), to sensitize the mouse. On Days 15 to 21, the mouse was taken to an inhalation chamber (W: 240 mm×L: 240 mm×H: 120 mm), and a 2% OVA solution was sprayed with an ultrasonic wave type nebulizer (NE-U12, manufactured by Omron) for 20 minutes, to thus conduct induction. The compound of the present invention suspended in a medium, was administered orally at 30 minutes before OVA sensitization on Day 8 and at 30 minutes before OVA induction on Days 15 to 21. To the control group was administered only the medium. Three hours after OVA inhalation on Day 21, the mouse was exsanguinated, the catheter tube was inserted into the trachea, and the lung was washed with heparin-containing physiological saline (10 U/ml), to give a bronchoalveolar lavage fluid (BALF). Leukocyte number in BALF was counted using hemocyte counter (SF-3000, manufactured by Sysmex).

Assay [4] has as its system auricle swelling. The assay can be described thus: Mouse dermatitis model to which hapten is continuously applied (TNCB). The format is in vivo. The following applies: mouse Balb/c, repeated TNCB, applied to ear at a concentration of 5%. The method, then:
4-2: Mouse Dermatitis Model to which Hapten is Applied
To the auricle (both sides of the right ear) of the mouse (male, Balb/c), 1% (w/v) TNCB solution (acetone:olive oil=4:1) (20 μL) was applied to conduct first sensitization. Seven days after sensitization, 1% (w/v) TNCB (acetone:olive oil=4:1) (20 μL) was applied to the mouse auricle, to conduct induction (Day 0). Furthermore, on Days 2, 4, 6, 8, 10, 12, 14 and 16, the same procedure as on Day 0 was repeated. The compound of the present invention was dissolved in a medium, applied to both sides of the right ear (20 μL) 2 hours before applying TNCB. To the control groups, was applied only the medium. Right after the administration of the compound and 24 hours after TNCB application, the thickness of the mouse auricle was measured with Dialthickness gauge (manufactured by Ozaki Seisakusho), which was used as indicator for efficacy in mouse dermatitis model to which hapten was continuously applied.

For assay [5], the system named is CCRF-CEM cell. Description: Inhibition of MDC-induced T cell strain (CCRF-CEM cell) migration. The format is cell-based. Particulars: 4 hours. The procedure: Biological Example 2: Activity on cell migration stimulated by MDC 2-1: Inhibition tests on MDC-induced T cell strain (CCRF-CEM cell) migration A medium (0.3 mL) containing or free of MDC (20 nM, manufactured by PeproTech) was added to the lower chamber of 24-transwell plate, and further a medium (0.3 mL) containing a test compound solution of 2-fold concentration (containing 0.02% dimethylsulfoxide (DMSO)) or a medium (0.3 mL) containing DMSO only was added thereto. To the upper chamber, CCRF-CEM cell suspension prepared in 1×10^6 cells/50 μl and the test compound solution of 2-fold concentration (0.05 m]L) were added. The test was initiated by superimpose the upper chamber on the lower chamber. The chambers were incubated in a carbon gas incubator (5% CO2, 95% humidity) kept at 37° C. for 4 hours, and the cells remaining in the upper chamber were sucked up and removed. Then, 0.1 ml of a buffer (phosphate-buffered saline (PBS) containing ethylenediamine tetra-acetate sodium (EDTA) (20 μM) was added thereto, and subjected- to reaction at 4° C. for 30 minutes. The transwell plate was centrifuged (1000 r.p.m.) for 5 minutes, and the incubation liquid (600 μL) in the lower chamber was collected, and the cell number was counted using Flow Cytometer (manufactured by Becton-Dickinson). […]

The test system of assay [6] is auricle swelling. The assay can be described thus: Mouse DTH model (TNCB). It is filed as in vivo. Particulars: mouse Balb/c, applied to ear at a concentration of 5%, 24 hours after TNCB. The method, then:
The mouse (male, Balb/c) was shaved on the abdomen with hair clippers, and to the abdomen was applied ethanol solution (100 μL) of 7% (w/v) 2,4,6-trinitrochlrobenzene (TNCB), to sensitize the mouse. Seven days after sensitization, a 1% (w/v) TNCB solution in olive oil (20 μL) was applied to the auricle of the mouse (both sides of the right ear), to conduct induction. The present compound dissolved in a medium, was applied to both sides of the right ear (20 μL) 2 hours before applying TNCB. To the control groups, was applied only the medium. Right after the administration of the compound and 24 hours after TNCB application, the thickness of the mouse auricle was measured with Dialthickness gauge (manufactured by Ozaki Seisakusho), which was used as indicator for efficacy in mouse DTH model.

In the case of `Cc1ccc(S(=O)(=O)Nc2ncc(Br)nc2OCc2cccnc2)cc1` [Example 1(1), 6-bromo-2-((pyridin-3-yl)methyloxy)-3-(4-methylphenylsulfonylamino)pyrazine], the IC50 (as a rule, the point on the concentration scale where inhibition reaches its midpoint) in assay [1] came out at 130 nM. Moreover, the “TNFα production by LPS stimulation (plasma TNFα)” value in assay [2] is reported as “suppressed TNFα production by LPS stimulation”.
`COc1ccc(COc2nc(Br)cnc2NS(=O)(=O)c2ccc(C)cc2)cc1OC` [Example 1(2), 6-bromo-2-((3,4-dimethoxyphenyl)methyloxy)-3-(4-methylphenylsulfonylamino)pyrazine]: the IC50 in assay [1] amounted to 16 nM.
Turning to `COc1ccc(COc2nc(Br)cnc2NS(=O)(=O)c2ccc(C)cc2)cc1OCCN(C)C` [Example 1(3), 6-bromo-2-((3-(2-dimethylaminoethyloxy)-4-methoxyphenyl)methyloxy)-3-(4-methylphenylsulfonylamino)pyrazine], the “leukocyte infiltration into the lung (leukocyte number in BALF)” value in assay [3] is “suppressed leukocyte infiltration into the lung”. The auricle swelling result in assay [4] is recorded as “suppressed the auricle swelling”.
As to `COc1ccc(COc2nc(C)cnc2NS(=O)(=O)c2ccc(C)cc2)cc1OCCN(C)C` [Example 6(1), 6-methyl-2-((3-(2-dimethylaminoethyloxy)-4-methoxyphenyl)methyloky)-3-(4-methylphenylsulfonylamino)pyrazine], the IC50 in assay [5] was 10 nM. Further, the auricle swelling entry in assay [6] is “suppressed the auricle swelling”.

For the origin of these results see patent publication US20060004010A1, “Ccr4 antagonist and medical use thereof” (priority 2002, published 2006).
